According to patent publication US20250129116A1, “CYCLOPROPANOL AS A BIOORTHOGONAL WARHEAD FOR ELECTROCHEMICALLY CONTROLLED BIOCONJUGATION APPLICATIONS” (UNIVERSITY OF SOUTH CAROLINA, priority 2023, published 2025):
One block for each molecule: values may come before it.

Key:
[1] = molecular target: bovine serum albumin (BSA) (Bos taurus, UniProt P02769); assay: Electrochemically promoted bioconjugation, MALDI-TOF MS; assay type: biochemical; details: NaX (X=I or Br), 0.8 V or 1.2 V, phosphate buffer 0.1 M pH 7.0
Protocol: (§1) Mass spectra were generated with a MALDI-TOF mass spectrometer (rapifleX MALDI Tissuetyper from BRUKER) equipped with a solid-state smart beam and operated in a linear delayed extraction positive ion mode. The samples of conjugated peptide were concentrated using IMCStips (1 mL, IMCS company) and eluted with 70% acetonitrile/0.1% trifluoracetic acid (TFA) following the manufacturer protocol. Of note, the samples of conjugated proteins and viruses were denatured by incubating with guanidinium chloride (8 M) for 5 min at RT, followed by the removal of salts and elution using IMCStips. The resultant samples were spotted on a MALDI plate. These spots were analyzed by MALDI-TOF MS spectrometer with the matrix (Vsample: Vmatrix=1:1). Matrix of sinapic acid in 50% acetonitrile/0.1% TFA was used for protein measurements, and the matrix of a-Cyano-4-hydroxycinnamic acid in 50% acetonitrile/0.1% TFA was used for peptide measurements.
(§2) To further access the compatibility of biomolecules and various CPol derivatives within the electrochemical bioconjugation process, a range of biomolecules including peptides, proteins, and TMV, along with different CPol derivatives, were subjected to the NaI or NaBr redox catalyst and a low cell potential of 0.8 V or 1.2 V individually (FIG. 4A). Electrochemical bioconjugation was employed for labeling angiotensin I, which is a peptide hormone responsible for vasoconstriction and evaluated in blood pressure. […] However, when modifying angiotensin I with NaI at a voltage of 0.8V, certain side reactions may occur. […] Thus, we conducted a preliminary reaction involving bivalirudin or lysozyme, compound 1, and the resulting Br-substituted ketone without the application of electrochemical conditions (FIGS. 11-12).
(§3) Subsequently, the electrochemical bioconjugation approach was evaluated on lysozyme, a 14 kDa cationic protein. […] Additionally, the electrochemical bioconjugation on bovine serum albumin (BSA) was also evaluated. […] Besides, the conjugated biomolecule was conjugated with biotin-oxyamine under weak acidic conditions (m/z=18063 in FIG. 4F), which can be used in further cell labeling or protein proteomic analysis.

lysozyme = lysozyme (Gallus gallus, UniProt P00698); assay: as above; assay type: biochemical; details: NaBr, constant voltage 1.2 V, phosphate buffer 0.1 M pH 7.0
Protocol: as §1, §2, §3

[2] = test system: wild-type tobacco mosaic virus (wt-TMV); assay: as above; assay type: biochemical
Protocol: To purify wild-type plant virus tobacco mosaic virus (TMV), frozen TMV leaves were crushed and blended. Approximately 3 volumes of phosphate buffer were added to the crushed leaves with an addition of 0.2-0.3% 2-mercaptoethanol. The leaves were blended for 2 min at a low setting and then switched to the highest setting for an additional 3 min. The blended plant sap was filtered through two layers of cheesecloth and then flow through was centrifuged at 10500 rpm (Sorvall SLA 1500) at 4° C. for 20 min. The resulting supernatant was then pooled together and mixed with n-butanol/chloroform at a ratio of 2:1:1 (plant sap/n-butanol/chloroform). The homogenate was stirred for 30 min on ice and then centrifuged at 6000 rpm (SLA 4000) for 10 min at 4° C. The upper aqueous layer was transferred to a beaker, and the virus was precipitated by adding 0.2 M NaCl and 8% (wt/vol) PEG-8000. The mixture was stirred on ice for 60 min and centrifuged at 12000 rpm (Sorvall SLA1500) for 20 min. The white precipitant was then resuspended with 10 mM K phos buffer (pH 7.8). The solution was centrifuged at 9,500 rpm for 15 min at 4° C. to remove excess PEG. The supernatant was transferred to ultracentrifuge tubes (Beckman 50.2 Ti) and the virus was pelleted at 42,000 rpm at 4° C. for 3 h. The virus pellet was resuspended in 100 mM K phos buffer (pH 7.8) overnight at 4° C. UV absorbance was measured at 260 and 280 nm wavelengths to determine the concentration of the virus. […] The purified virus solutions were stored at 4° C.
Mass spectra were generated with a MALDI-TOF mass spectrometer (rapifleX MALDI Tissuetyper from BRUKER) equipped with a solid-state smart beam and operated in a linear delayed extraction positive ion mode. […] These spots were analyzed by MALDI-TOF MS spectrometer with the matrix (Vsample: Vmatrix=1:1). […]
Subsequently, the electrochemical bioconjugation approach was evaluated on lysozyme, a 14 kDa cationic protein. […] Additionally, the electrochemical bioconjugation on bovine serum albumin (BSA) was also evaluated. […]

Vero cells [3] = assay: CellTiter Blue (CTB) cell viability assay; assay type: cell-based; details: 24 h
Protocol: The in vitro cytotoxicity test of CPol-choline analog or other chemicals on Vero cells was determined by CellTiter Blue (CTB) cell viability assay (Promega). Briefly, Vero cells were cultured in 96-well plates at a density of 12.5×10^3 cells per well one day prior experiment. On the following day, the media was replaced by fresh 10% FBS DMEM containing the choline analogs at the concentrations of 0.2, 0.4, 0.8, 1, and 5 mM and incubated for 24 h at 37° C. The cells without the compounds were used as controls. NaI and I2 were also tested at the concentrations varied from 0.01 to 10,000 μM. The experiments were performed in quadruplicate. After 24 h of incubation, the media in each well was replaced by prewarmed media containing 10% CTB reagent and incubated for 2 h at 37° C. and 5% CO2. The medium containing CTB without cells was used as a negative control. Fluorescence intensity was then measured at 560/590 nm (Ex/Em) using SpectraMax M2 Multi-Mode microplate reader (Molecular Devices) to indicate cell viability.

Hela cells = assay: Metabolic incorporation of CPol-choline, lipidomic experiments and LC-MS; assay type: cell-based; details: 5 mM, 24 h
Protocol: (§4) Three million cells (Vero, HeLa, or NIH-3T3) were seeded into a 10-cm cell culture dish and allowed attachment for 24 h in a complete medium (DMEM with 10% FBS) in a CO2 incubator. When cells reached 70-80% confluency, choline analog (PCPol-Cho or ECPol-Cho) at a final concentration of 5 mM was added into cells and co-cultured for another 24 h. The adhered cells were washed with 5 mL ice-cold DPBS (Dulbecco's Phosphate-Buffered Saline, CORNING), and were scratched into ice-cold PBS (5 mL), pooled in a centrifuge tube, and centrifuged at 1,000 rpm for 5 min at room temperature. The supernatant was then aspirated off and the lipids were extracted from the resultant pellet using the modified Bligh Dyer method. Briefly, the cell pellet was treated with a mixture of chloroform and methanol (1 mL of a 1:2 v/v solution), vortexed for 1 min, followed by addition of chloroform (0.5 mL) and 1 M NaCl (0.5 mL), and again vortexed for 1 min. Phase separation was achieved by centrifuging the mixture at 3,220 g at 4° C. for 30 min. The lower lipid-enriched organic layer was separated and dried using nitrogen at room temperature. For all LC-MS/MS analyses, the dried lipids were dissolved in a mixture of chloroform and methanol (200 μL of a 1:1 v/v solution). For all control experiments, the procedure described above was followed without administration of any choline derivatives.
(§5) Choline stands as the predominant head group in phospholipids which are the principal components of all cellular membranes. […] (FIG. 5A). The metabolic incorporation efficiency of CPol-choline was evaluated through lipidomic experiments (FIG. 15A) and LC-MS (FIG. 15B).

NIH-3T3 cells = assay: as above; assay type: cell-based; details: 5 mM, 24 h
Protocol: as §4, §5

Vero cells [4] = assay: as above; assay type: cell-based; details: 5 mM, 24 h
Protocol: as §4, §5

Vero cells [5] = assay: Electrochemically assisted cell labeling, FTSCA fluorescence; assay type: cell-based; details: CPol+NaI+Echem group: 5 mM CPol-choline, NaI 100 μM, 0.7 V, 50 μM FTSCA, plate reader
Protocol: Vero cells were cultured in a 100-mm cell culture dish and allowed attachment overnight in a complete medium (DMEM with 10% FBS). When cells reached 60-70% confluency, CPol-choline analog at a final concentration of 5 mM was added into Vero cells and co-cultured for 24 h. The labeled Vero cells were harvested into 5 mL Dulbecco's Phosphate-Buffered Saline (DPBS 1×, CORNING). The cell numbers were counted using a hemocytometer. The cell concentration at 6×10^6 cells was used in the experiment. Subsequently, the Vero cell suspension was treated with NaI (100 μM) and low cell potential (0.7 V) under divided H-cell for 10 min. […] For the fluorescence imaging, the cells in a 24-well plate were fixed with 70% ethanol at −20° C. for 10 min, washed with DPBS three times, and then reacted with 50 μM FTSCA for 1 h at room temperature. After removing the unbound FTSCA, the cells were imaged by a fluorescence microscope (Olympus IX81, Shinjuku-ku, Tokyo, Japan). […] After washing with DPBS, the plate was read using a plate reader (Tecan Infinite M200 microplate reader) with an excitation wavelength of 491 nm and emission cutoff at 520 nm. […]
The intensity of this fluorescence was quantified using a plate reader and visualized using fluorescence microscopy (FIG. 6A). […]

angiotensin I = molecular target: T1, angiotensin I (Homo sapiens, UniProt P01019); assay: Electrochemically promoted bioconjugation, MALDI-TOF MS and LC-MS; assay type: biochemical; details: NaBr, constant voltage 1.2 V
T1 construct: labeling angiotensin I, which is a peptide hormone responsible for vasoconstriction
Protocol: as §1, with “Matrix of sinapic acid in 50% acetonitrile/0.1% TFA was used for protein measurements, and the matrix of a-Cyano-4-hydroxycinnamic acid in 50% acetonitrile/0.1% TFA was used for peptide measurements.” left out
(§6) To further access the compatibility of biomolecules and various CPol derivatives within the electrochemical bioconjugation process, a range of biomolecules including peptides, proteins, and TMV, along with different CPol derivatives, were subjected to the NaI or NaBr redox catalyst and a low cell potential of 0.8 V or 1.2 V individually (FIG. 4A). Electrochemical bioconjugation was employed for labeling angiotensin I, which is a peptide hormone responsible for vasoconstriction and evaluated in blood pressure. […]

bivalirudin = assay: as above; assay type: biochemical; details: NaBr, constant voltage 1.2 V, batch reaction
Protocol: as §1, with “Matrix of sinapic acid in 50% acetonitrile/0.1% TFA was used for protein measurements, and the matrix of a-Cyano-4-hydroxycinnamic acid in 50% acetonitrile/0.1% TFA was used for peptide measurements.” left out
as §6

Chain of lysozyme (P00698 19-147): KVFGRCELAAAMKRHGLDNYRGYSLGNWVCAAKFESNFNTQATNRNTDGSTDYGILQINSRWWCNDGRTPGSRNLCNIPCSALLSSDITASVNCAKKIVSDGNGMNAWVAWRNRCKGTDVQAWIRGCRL
Chain of bovine serum albumin (BSA) (P02769 25-607): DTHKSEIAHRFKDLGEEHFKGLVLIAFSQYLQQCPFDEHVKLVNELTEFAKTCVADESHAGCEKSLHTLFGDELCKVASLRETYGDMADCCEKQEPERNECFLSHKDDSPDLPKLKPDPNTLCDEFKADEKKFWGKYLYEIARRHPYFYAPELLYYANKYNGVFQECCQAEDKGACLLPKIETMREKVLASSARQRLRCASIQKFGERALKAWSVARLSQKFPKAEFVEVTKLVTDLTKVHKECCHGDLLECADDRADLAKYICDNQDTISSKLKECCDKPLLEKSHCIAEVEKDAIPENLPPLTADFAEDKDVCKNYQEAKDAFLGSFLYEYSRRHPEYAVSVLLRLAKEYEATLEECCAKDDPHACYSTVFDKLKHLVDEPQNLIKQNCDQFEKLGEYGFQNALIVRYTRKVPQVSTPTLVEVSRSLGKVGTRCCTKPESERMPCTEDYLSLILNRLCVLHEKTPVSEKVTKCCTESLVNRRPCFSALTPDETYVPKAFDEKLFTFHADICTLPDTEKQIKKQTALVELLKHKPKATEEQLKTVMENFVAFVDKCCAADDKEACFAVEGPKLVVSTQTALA

SMILES: CCCCCC1(O)CC1 [Formula I-4, Pentylcyclopropanol]
- conjugation to BSA [1]: efficiently conjugated
- conjugation to lysozyme (lysozyme): efficiently conjugated
- conjugation to wt-TMV ([2]; NaBr, constant voltage 1.2 V): successfully modified

- conjugation to lysozyme (lysozyme): efficiently conjugated
SMILES: OC1(c2ccc(C(F)(F)F)cc2)CC1 [Formula I-7, 1-(4-(trifluoromethyl)phenyl)cyclopropan-1-ol]

SMILES: [I-].[Na+] [NaI, sodium iodide]
- cytotoxicity on Vero cells (Vero cells [3]; NaI 0.01 to 10,000 μM): safely co-cultured

SMILES: Br.C[N+](C)(CCO)CCCC1(O)CC1 [CPol-choline analog]
- cytotoxicity on Vero cells (Vero cells [3]; choline analog 0.2-5 mM): no cytotoxicity was observed
- metabolic incorporation into cells (Hela cells): successfully incorporated
- metabolic incorporation into cells (NIH-3T3 cells): successfully incorporated
- metabolic incorporation into cells (Vero cells [4]): successfully incorporated
- intracellular fluorescence intensity after labeling with FTSCA (Vero cells [5]): strongest fluorescent intensity

SMILES: OC1(c2ccccc2)CC1 [Formula I-1, Phenylcyclopropanol]
- conjugation to BSA [1]: efficiently conjugated
- conjugation to lysozyme (lysozyme): efficiently conjugated
- conjugation to wt-TMV ([2]; CPol derivative 10 eq., NaI, potential of 1.2 V): modified TMV peak ([M+132]^+) was found
- conjugation to wt-TMV ([2]; identical electrochemical conditions (1.2 V) without NaI): no reaction occurred
- labeling of angiotensin I (angiotensin I): successful labeling
- modification of bivalirudin (bivalirudin): effectively modified
